“Also recorded” adds a separate entry of the source.
Tests used:
IL6 = test: Expression of proinflammatory cytokine IL6 in AT719-P cells; assay type: cell-based, human; conditions: relative to β-actin
Protocol: FIG. 12. Levels of expression of proinflammatory cytokines in ataxia telangiectasia cells after expressing peptides GSE24.2 and GSE4. AT719-P AT cells were infected with a lentiviral vector expressing GSE24.2, GSE4 or a GFP empty vector and three weeks later the RNA was extracted and after obtaining the corresponding cDNA, the levels of expression of the proinflammatory cytokines IL6 and IL8 were determined. AT736C cells were used as a control. The levels of expression of the gene β-actin were measured as control of expression. The results are expressed as the relative increase in the number of times of expression of each of the genes compared to β-actin, considering the levels of expression of AT736C cells as 1.
As the peptide denominated GSE4 was smaller than the peptides with ability to repair telomerase activity, we studied if it had the same activity as peptide GSE24.2 for attenuating oxidative stress, expression of proinflammatory cytokines and repairing the senescence in ataxia telangiectasia cells. […] Finally, given that the increase in expression of the interleukins IL6 and IL8 are associated with a secretory phenotype linked to senescence in ataxia telangiectasia, we evaluated the ability of both peptides GSE24.2 and GSE4 to reduce senescence by evaluating senescence-associated β-galactosidase activity (SA-beta-Gal) (FIG. 13).

F9A353V cells = test: Repair of damage to DNA: Western blot of histone H2AX (Ser139) in F9A353V cells transfected with synthetic peptides; assay type: cell-based
Protocol: FIG. 6. Western blot of F9 and F9A353V cells after 24 hours of transfection with chemically synthesized peptides derived from GSE24.2. The peptides indicated on each line of gel were transfected (15 μg of each peptide) on a 30 mm plate. After separating the protein extracts on polyacrylamide gels and transferring them to a nitrocellulose membrane, the membrane was hybridised with an antibody against histone H2AX (Ser139) and then with an antibody against α-tubulin as a loading control.
FIG. 7. Quantification of Western blot of FIG. 6. The signal obtained with histone H2AX (Ser139) was corrected with the signal of α-tubulin considering the signal obtained with the F9 cells transfected with beta-galactosidase (as control) as 1, using the NIH-Image program.
FIG. 8. Western blot of F9 and F9A353V cells after 24 of transfection with the GSE4 peptide at increasing concentrations. […]
FIG. 9. Quantification of the Western blot of FIG. 8. […]
In order to optimise the operating conditions of peptide GSE4, different amounts of peptide GSE4 were transfected into F9A353V cells and the amount of damage to DNA was determined using a specific antibody as was performed in FIG. 6 (FIG. 8). After quantification of the Western blot (FIG. 9), maximum inhibition of damage to DNA was obtained by transfecting 8 μg of peptide GSE4.

HeLa cells = test: Internalisation of fluorescein-labelled peptides, confocal fluorescence microscopy; assay type: cell-based
Protocol: (§1) FIG. 21. Transfection of peptides GSE4 and GSE4NLS1 in HeLa cells. Peptides GSE4 and GSE4NLS1 (SEQ ID No. 7) labelled with fluorescein and obtained by chemical synthesis were transfected into HeLa cells using the Proteojuice reagent and viewed in a confocal fluorescence microscope at 9, 24 and 48 hours after transfection.
as §1, with “22. Internalisation” for “21. Transfection”, “added to the culture medium of” for “transfected into”, “cells” for “cells using the Proteojuice reagent”
Given the ability of sequence NLS1 to contribute to the activity of GSE24.2, a synthetic peptide into which this sequence was placed in the 3′ region of peptide GSE4 was constructed as this was the peptide for which the greatest telomerase activation was obtained. The peptides obtained by chemical synthesis were labelled with fluorescein to facilitate their visualisation in a fluorescence microscope. Two experiments were performed in parallel, in one the peptides were transfected using Proteojuice reagent and in the other they were added directly to the culture medium. […] An important difference observed was that when the peptides were added directly to the culture medium, the peptide entered into a higher number of cells than when Proteojuice was used. The reagent provided greater effectiveness for internalisation but into a small number of cells.

AT3189-P AT lymphoblasts = test: ROS levels by DHE and flow cytometry in AT lymphoblasts; assay type: cell-based, human; conditions: AT3189-P cells, three weeks after infection, DHE, versus AT736C control cells
Protocol: FIG. 3. Determination of ROS levels in AT cells: AT3189-P AT cells were infected with a lentiviral vector expressing GSE24.2 or a GFP empty vector and three weeks later were loaded with the DHE reagent that detects Reactive Oxygen Species (ROS) levels. AT736C cells were used as a control. Relative fluorescence of the three cell lines and the proportion of cells with maximum intensity were determined through flow cytometry using wavelengths of 518 nm absorption and 605 nm emission. The data are shown as relative percentage of cells that emit at this wavelength.
One of the characteristics of AT cells is an increase in free radical content. This is due to the failure of function of protein ATM, which is able to maintain the redox balance in normal cells when the cells are exposed to environmental stress such as in vitro culture. In order to verify if expression of GSE24.2 has some impact on the regulation of free radical levels, we used the compound dihydroethidium (Hydroethidine), which enables quantifying the levels of free radicals in living cells. […] Three weeks after infection, the cells were loaded with the DHE reagent for 30 minutes and the proportion of cells with different free radical content was determined by flow cytometry.

Row | Sequence | reduction of levels of expression of IL6 (IL6) | amount of peptide transfected giving maximum inhibition of damage to DNA (F9A353V cells; increasing amounts of peptide) | repair of damage to DNA (phosphorylation of histone H2AX) (F9A353V cells; peptides lipofected with Proteojuice, 24 hours) | entry into cells (HeLa cells; peptide simply added to the culture medium) | entry into cells (HeLa cells; transfected using Proteojuice reagent) | ROS levels (AT3189-P AT lymphoblasts)
1 | GFINLDKPSNP [GSE4] | 80% | 8 µg | substantially improved the activity of the full domain; also recorded: smallest sized peptide able to repair the damage to DNA | entered the cells | entered the cells | 
2 | GFINLDKPSNPSSHEVVAWIRRILRVEKTGHSGTLDPKVTGCLIVCIERATRLVK (GSE24.2; listed as Homo sapiens) [55-amino-acid peptide corresponding to the protein dyskerin; known from WO2007/090911] |  |  |  |  |  | reduced in AT3189-P GSE24.2 cells to values comparable to those found in the AT736C control cells
